Data published in patent US20070135499A1 (Aerie Pharmaceuticals, Inc., priority 2005, published 2007).
pIC50, pKi: −log10 of the molar value. “Also recorded” adds a separate entry of the source.

What was measured:
GRK-3 = target: T1, GRK-3 (Homo sapiens, UniProt P35626); assay: luciferase-based biochemical kinase inhibition assay, GRK-3; conditions: same luciferase assay; read-out: GRK-3 inhibition, Ki class
T1 sequence (P35626 1-688): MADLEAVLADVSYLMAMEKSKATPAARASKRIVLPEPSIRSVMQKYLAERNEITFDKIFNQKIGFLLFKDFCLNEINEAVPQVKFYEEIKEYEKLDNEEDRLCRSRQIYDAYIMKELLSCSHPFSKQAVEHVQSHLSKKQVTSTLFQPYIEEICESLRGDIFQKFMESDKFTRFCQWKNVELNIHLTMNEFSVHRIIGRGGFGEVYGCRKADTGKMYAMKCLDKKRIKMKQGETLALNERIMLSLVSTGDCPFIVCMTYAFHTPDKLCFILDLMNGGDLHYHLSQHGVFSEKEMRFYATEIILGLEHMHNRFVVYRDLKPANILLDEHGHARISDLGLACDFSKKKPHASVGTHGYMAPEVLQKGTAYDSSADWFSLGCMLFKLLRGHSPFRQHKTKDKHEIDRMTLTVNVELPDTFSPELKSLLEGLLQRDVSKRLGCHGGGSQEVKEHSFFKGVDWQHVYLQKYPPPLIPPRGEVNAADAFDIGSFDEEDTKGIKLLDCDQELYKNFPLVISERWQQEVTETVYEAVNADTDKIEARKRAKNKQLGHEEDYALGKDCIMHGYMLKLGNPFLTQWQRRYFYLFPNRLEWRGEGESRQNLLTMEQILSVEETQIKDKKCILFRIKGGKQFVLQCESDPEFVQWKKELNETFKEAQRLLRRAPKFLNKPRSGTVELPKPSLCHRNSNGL
Procedure: (§1) The inhibition of G-protein-coupled receptor kinases including hGRK-2 was determined for the hydrazide compounds using a biochemical assay. The inhibition of GRK-3, GRK-5 and GRK-6 was also determined using the same assay for some of the hydrazide derivatives.
(§2) The protein kinase inhibition was determined using a biochemical assay utilizing the light emission of a luciferase reaction. The luciferase-based assay operates on the following reaction principles: [drawing 10]
(§3) An inhibitor of GRK-2 will increase in the amount of ATP in solution, as shown. Thus, an inhibitor of GRK-2 will drive the luciferase reaction to the right, resulting in more light emitted. The amount of light emitted is proportional to the inhibition resulting from the GRK-2 inhibitor. The luciferase-based assay was also used to test some of the hydrazides for the inhibition properties towards other kinases.

[1] = Topical ocular composition of Example 103 administered to the eyes; format: in vivo; conditions: 0.50 wt % topical composition
Procedure: Examples of such assays are described in the following reference, incorporated herein: C. Liljebris, G. Selen, B. Resul, J. Sternschantz, and U. Hacksell, “Derivatives of 17-Phenyl-18,19,20-trinorprostaglandin F2α Isopropyl Ester: Potential Antiglaucoma Agents”, Journal of Medicinal Chemistry, Vol. 38 (2) 1995, pp. 289-304.
Topical pharmaceutical compositions for lowering intraocular pressure are prepared by conventional methods and formulated as follows: […]
A compound according to this invention is used as the hydrazide derivative. […]

hGRK-2 = target: T2, hGRK-2 (Homo sapiens, UniProt P25098); assay: luciferase-based (Kinase-Glo) biochemical kinase inhibition assay, hGRK-2; conditions: for pKi: luciferase assay, casein substrate, 10 μM ATP, read-out: GRK-2 inhibition, Ki class
T2 sequence (P25098 1-689): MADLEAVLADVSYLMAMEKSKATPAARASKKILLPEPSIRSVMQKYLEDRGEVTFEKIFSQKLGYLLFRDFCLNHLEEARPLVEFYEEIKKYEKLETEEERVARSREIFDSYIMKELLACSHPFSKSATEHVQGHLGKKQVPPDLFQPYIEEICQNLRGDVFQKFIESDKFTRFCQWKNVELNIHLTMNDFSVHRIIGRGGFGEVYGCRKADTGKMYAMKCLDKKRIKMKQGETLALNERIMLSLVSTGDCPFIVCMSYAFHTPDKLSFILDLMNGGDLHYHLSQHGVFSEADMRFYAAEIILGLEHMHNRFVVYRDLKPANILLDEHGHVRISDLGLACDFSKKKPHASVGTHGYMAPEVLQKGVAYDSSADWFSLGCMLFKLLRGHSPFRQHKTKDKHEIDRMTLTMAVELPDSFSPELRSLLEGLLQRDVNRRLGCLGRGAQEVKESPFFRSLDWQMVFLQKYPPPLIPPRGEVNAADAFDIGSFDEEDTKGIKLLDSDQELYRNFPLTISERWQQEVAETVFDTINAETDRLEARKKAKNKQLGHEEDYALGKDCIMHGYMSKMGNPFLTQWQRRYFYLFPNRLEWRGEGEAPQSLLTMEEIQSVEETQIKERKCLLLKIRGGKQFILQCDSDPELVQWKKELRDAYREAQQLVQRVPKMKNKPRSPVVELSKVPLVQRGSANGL
Outline: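 Final conditions: 50 nM hGRK2, 20 μM casein, 10 μM ATP and 50 μM test compound in 4.5% DMSO, in HEPES pH 7.5 buffer with MgCl2, orthovanadate, CHAPS, BSA and DTT. Incubation ran 90-120 min at room temperature, targeting 20-30% ATP consumption. Remaining ATP was read by luminescence with diluted Kinase-Glo containing 0.01% trypan blue.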

GRK-6 = GRK-6 (Homo sapiens, UniProt P43250); assay: luciferase-based biochemical kinase inhibition assay, GRK-6; conditions: same luciferase assay; read-out: GRK-6 inhibition, Ki class
Procedure: as §1, §2, §3

GRK-5 = GRK-5 (Homo sapiens, UniProt P34947); assay: luciferase-based biochemical kinase inhibition assay, GRK-5; conditions: same luciferase assay; read-out: GRK-5 inhibition, Ki class
Procedure: The inhibition of G-protein-coupled receptor kinases including hGRK-2 was determined for the hydrazide compounds using a biochemical assay. […] The inhibition of GRK-3, GRK-5 and GRK-6 was also determined using the same assay for some of the hydrazide derivatives.
as §2, §3

[2] = target: Beta 2 Adrenergic Receptor (B2 wt); assay: Transfluor assay, isoproterenol-induced arrestin-GFP translocation to Beta 2 Adrenergic Receptor; format: cell-based; conditions: U2OS cells
[3] = system: Beta 2 Adrenergic receptor; assay: cAMP accumulation in HEK-293 cells with isoproterenol; format: cell-based; conditions: Beta 2 Adrenergic receptor overexpressed, fixed concentration of isoproterenol, increased concentrations of compound
Text: This is consistent with the inhibition of GRK-2 resulting in less translocation of arrestin-GFP, less desensitization, and consequently more signaling by the B2AR. With more receptors available now on the surface of the cell, more cAMP is being generated in the presence of isoproterenol.

mu-opioid receptor = conditions: U2OS cells
[4] = target: Beta 1 Adrenergic receptor (B1 wt); assay: Transfluor assay, ISO-induced arrestin-GFP translocation to Beta 1 Adrenergic receptor; format: cell-based; conditions: U2OS cells

GRK-5, sequence (P34947 whole entry, species assumed): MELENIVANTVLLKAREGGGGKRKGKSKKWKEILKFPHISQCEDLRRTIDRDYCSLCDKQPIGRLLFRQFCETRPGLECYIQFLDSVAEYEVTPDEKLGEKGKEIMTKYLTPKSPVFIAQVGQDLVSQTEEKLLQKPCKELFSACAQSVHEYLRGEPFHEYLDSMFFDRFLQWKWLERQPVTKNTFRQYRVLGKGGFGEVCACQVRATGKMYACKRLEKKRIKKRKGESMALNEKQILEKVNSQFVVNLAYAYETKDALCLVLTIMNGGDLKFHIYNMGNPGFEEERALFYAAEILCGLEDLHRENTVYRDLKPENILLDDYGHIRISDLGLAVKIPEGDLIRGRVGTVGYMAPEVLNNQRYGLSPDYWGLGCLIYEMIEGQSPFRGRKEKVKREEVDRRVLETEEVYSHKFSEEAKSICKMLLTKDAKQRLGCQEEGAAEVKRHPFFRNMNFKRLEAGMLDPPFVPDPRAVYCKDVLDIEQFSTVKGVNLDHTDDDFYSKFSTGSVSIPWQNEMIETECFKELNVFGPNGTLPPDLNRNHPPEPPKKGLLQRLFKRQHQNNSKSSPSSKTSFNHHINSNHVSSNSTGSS
GRK-6, sequence (P43250 whole entry, species assumed): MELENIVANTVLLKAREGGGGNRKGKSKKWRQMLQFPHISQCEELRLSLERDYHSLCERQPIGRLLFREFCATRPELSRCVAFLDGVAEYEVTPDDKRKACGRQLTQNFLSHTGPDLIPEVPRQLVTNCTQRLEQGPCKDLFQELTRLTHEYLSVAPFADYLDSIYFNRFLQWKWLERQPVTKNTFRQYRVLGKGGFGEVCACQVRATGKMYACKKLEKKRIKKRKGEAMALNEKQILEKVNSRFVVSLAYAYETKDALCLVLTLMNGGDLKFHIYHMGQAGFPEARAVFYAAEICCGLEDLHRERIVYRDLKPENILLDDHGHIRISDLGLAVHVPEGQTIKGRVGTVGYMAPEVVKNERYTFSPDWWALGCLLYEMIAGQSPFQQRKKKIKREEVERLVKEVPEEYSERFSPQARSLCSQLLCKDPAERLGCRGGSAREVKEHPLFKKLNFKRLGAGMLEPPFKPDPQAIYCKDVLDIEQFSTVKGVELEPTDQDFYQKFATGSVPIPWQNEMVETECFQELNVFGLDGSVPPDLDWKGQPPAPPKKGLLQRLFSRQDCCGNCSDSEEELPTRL

pKi (GRK-3) | pKi (hGRK-2) | pKi (GRK-6) | pKi (GRK-5) | Compound | other results
6.00 to 7.00 | 6.00 to 7.00 | – | – | NC(=O)c1cccc(NCC(=O)N/N=C/c2ccncc2)c1 [Example 51, 3-{[1-Pyridin-4-yl-meth-(E)-ylidene-hydrazinocarbonylmethyl]-amino}-benzamide] | hyperemia, redness and ocular irritation ([1]; drop as needed): substantially decreases hyperemia, redness and ocular irritation
– | 6.00 to 7.00 | – | – | O=C(CNc1cccc(C(=O)NCCN2CCOCC2)c1)N/N=C/c1ccncc1 [Example 79, N-(2-Morpholin-4-yl-ethyl)-3-{[1-pyridin-4-yl-meth-(E)-ylidene-hydrazinocarbonylmethyl]-amino}-benzamide] | intraocular pressure ([1]; drop 4 times per day): substantially decreases intraocular pressure; neuroprotective agent ([1]; drop 4 times per day): serves as a neuroprotective agent
6.00 to 7.00 | 6.00 to 7.00 | < 5.00 | 5.00 to 6.00 | COc1cccc(NCC(=O)N/N=C(\C)c2ccncc2)c1 [Example 88, (3-Methoxy-phenylamino)-acetic acid [1-pyridin-4-yl-eth-(E)-ylidene]-hydrazide] | –
6.00 to 7.00 | 6.00 to 7.00 | < 5.00 | < 5.00 | O=C(CNc1cccc(Oc2ccccc2)c1)N/N=C/c1ccncc1 [Example 55, (3-Phenoxy-phenylamino)-acetic acid [1-pyridin-4-yl-meth-(E)-ylidene]-hydrazide] | –
6.00 to 7.00 | 6.00 to 7.00 | < 5.00 | 5.00 to 6.00 | O=C(CNc1cccc(Oc2ccccc2)c1)N/N=C/c1c(Cl)cncc1Cl [Example 15, (3-Phenoxy-phenylamino)-acetic acid [1-(3,5-dichloro-pyridin-4-yl)-meth-(E)-ylidene]-hydrazide] | –
– | 7.00 to 8.00 | – | – | Cc1ccc(Oc2cccc(NCC(=O)N/N=C/c3ccncc3)c2)cc1 [Example 85, (3-p-Tolyloxy-phenylamino)-acetic acid [1-pyridin-4-yl-meth-(E)-ylidene]-hydrazide] | allergic symptoms ([1]; drop twice per day): substantially decreases allergic symptoms; dry eye syndrome ([1]; drop twice per day): relieves dry eye syndrome

Further lines, the compound ahead of its results:

Compound | pKi (GRK-3) | pKi (hGRK-2) | pKi (GRK-6) | pKi (GRK-5) | other results
CNC(=O)c1cccc(NCC(=O)N/N=C/c2c(Cl)cncc2Cl)c1 [Example 13, 3-{[1-(3,5-Dichloro-pyridin-4-yl)-meth-(E)-ylidene-hydrazinocarbonylmethyl]-amino}-N-methyl-benzamide] | 6.00 to 7.00 | 6.00 to 7.00 | < 5.00 | 5.00 to 6.00 | –
NC(=O)c1ccc(NCC(=O)N/N=C/c2c(Cl)cncc2Cl)cc1 [Example 28, 4-{[1-(3,5-Dichloro-pyridin-4-yl)-meth-(E)-ylidene-hydrazinocarbonylmethyl]-amino}-benzamide] | – | < 5.00 | – | – | intraocular pressure ([1]; drop twice per day): substantially decreases intraocular pressure
O=C(CNc1cccc(OCc2ccccc2)c1)N/N=C/c1c(Cl)cncc1Cl [Example 9, (3-Benzyloxy-phenylamino)-acetic acid [1-(3,5-dichloro-pyridin-4-yl)-meth-(E)-ylidene]-hydrazide] | 6.00 to 7.00 | 6.00 to 7.00 | < 5.00 | 5.00 to 6.00 | –
3-{[1-Pyridin-4-yl-meth-(E)-ylidene-hydrazinocarbonylmethyl]-amino}-benzamide [Example 41] | 7.00 to 8.00 | 7.00 to 8.00 | < 5.00 | – | pIC50 ([2]; 60 minute pre-incubation, ISO-induced β-arrestin translocation, read-out: IC50 of the β2 arrestin (FIG. 1)): 5.40; inhibition of arrestin-GFP translocation to the B2 WT (F-grains) ([2]; isoproterenol): stepwise reduction in translocation; also recorded: modest inhibition; accumulation of cAMP [3]: increased accumulation of cAMP; inhibition of GRK-2, in words (hGRK-2): very good inhibitor of GRK-2; inhibition of arrestin-GFP translocation to the μ opioid (mu-opioid receptor): strong inhibition; pIC50 (mu-opioid receptor; read-out: IC50 for the μ-opioid receptor (FIG. 3), 60 minute pre-incubation, morphine-induced β-arrestin translocation): ~6.82; pIC50 ([4]; 60 minute pre-incubation, ISO-induced β-arrestin translocation, read-out: IC50 of the β1 arrestin (FIG. 2)): < 5.00; inhibition of arrestin-GFP translocation to the B1 WT [4]: modest inhibition
COc1cccc(NCC(=O)N/N=C/c2c(Cl)cncc2Cl)c1 [Example 5, (3-Methoxy-phenylamino)-acetic acid [1-(3,5-dichloro-pyridin-4-yl)-meth-(E)-ylidene]-hydrazide] | 7.00 to 8.00 | 7.00 to 8.00 | < 5.00 | – | –
COc1cccc(NCC(=O)N/N=C/c2ccncc2)c1 [Example 43, (3-Methoxy-phenylamino)-acetic acid [1-pyridin-4-yl-meth-(E)-ylidene]-hydrazide] | 7.00 to 8.00 | 7.00 to 8.00 | < 5.00 | 5.00 to 6.00 | –
